In patent US12054494B2, “Compound with anticancer activity” (KYOWA KIRIN CO., LTD., priority 2018, dated 2024):

tested on: SU-DHL-4 cells; test: Inhibitory effect on cell viability (Cell Counting Kit-8); format: cell-based; conditions: Homo sapiens, 72 hours culture with test compound, concentration showing 90% inhibition rate of cell viability
Method in brief: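 SU-DHL-4 cells (2000/well, RPMI1640 with 10% FBS) precultured 18-25 h, then exposed to a 9-step compound dilution series (0.1% DMSO final) for 72 h at 37° C. Viability by CCK-8 absorbance at 450 nm after 2-3 h; IC90 computed from inhibition rate relative to untreated and cell-free wells.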

SMILES | IC90 [pM]
CCC(=O)N1c2ccccc2[C@H](NCCCC(=O)NCCn2cc(-c3ccc(N[C@@H]4C[C@H](C)N(C(=O)CC)c5ccccc54)cc3)cn2)C[C@@H]1C (relative stereo) [Compound 12i, 4-(((2S*,4R*)-2-Methyl-1-propionyl-1,2,3,4-tetrahydroquinolin-4-yl)amino)-N-(2-(4-(4-(((2S,4R)-2-methyl-1-propionyl-1,2,3,4-tetrahydroquinolin-4-yl)amino)phenyl)-1H-pyrazol-1-yl)ethyl)butanamide] | 3680
CCC(=O)N1c2ccccc2[C@H](Nc2ccc(NC(=O)N3CCN(C(=O)c4ccc(N[C@@H]5C[C@H](C)N(C(=O)CC)c6ccccc65)cc4)CC3)cc2)C[C@@H]1C (relative stereo) [Compound 6m, 4-(4-(((2S,4R)-2-Methyl-1-propionyl-1,2,3,4-tetrahydroquinolin-4-yl)amino)benzoyl)-N-(4-(((2S*,4R*)-2-methyl-1-propionyl-1,2,3,4-tetrahydroquinolin-4-yl)amino)phenyl)piperazine-1-carboxamide] | 120
CCC(=O)N1c2ccccc2[C@H](Nc2ccc(-c3cnn(CCNC(=O)c4ccc(Cn5c(C(=O)OCCN(C)C)cc6c5CCCC6=O)cc4)c3)cc2)C[C@@H]1C [Compound 15d, 2-(Dimethylamino)ethyl 1-(4-((2-(4-(4-(((2S,4R)-2-methyl-1-propionyl-1,2,3,4-tetrahydroquinolin-4-yl)amino)phenyl)-1H-pyrazol-1-yl)ethyl)carbamoyl)benzyl)-4-oxo-4,5,6,7-tetrahydro-1H-indole-2-carboxylate] | 160
CCC(=O)N1c2ccccc2[C@H](Nc2ccc(C(=O)N3CCC(C(=O)Nc4ccc(N[C@@H]5C[C@H](C)N(C(=O)CC)c6ccccc65)nc4)CC3)cc2)C[C@@H]1C (relative stereo) [Compound 10m, 1-(4-(((2S,4R)-2-Methyl-1-propionyl-1,2,3,4-tetrahydroquinolin-4-yl)amino)benzoyl)-N-(6-(((2S*,4R*)-2-methyl-1-propionyl-1,2,3,4-tetrahydroquinolin-4-yl)amino)pyridin-3-yl)piperidine-4-carboxamide] | 30900
CCC(=O)N1c2ccccc2[C@H](Nc2ccc(CNC3CN(C(=O)c4ccc(N[C@@H]5C[C@H](C)N(C(=O)CC)c6ccccc65)cc4)C3)cc2)C[C@@H]1C [Compound 5e, 1-((2S,4R)-2-Methyl-4-((4-(((1-(4-(((2S,4R)-2-methyl-1-propionyl-1,2,3,4-tetrahydroquinolin-4-yl)amino)benzoyl)azetidin-3-yl)amino)methyl)phenyl)amino)-3,4-dihydroquinolin-1(2H)-yl)propan-1-one] | 5930
CCC(=O)N1c2ccccc2[C@H](Nc2ccc(NC(=O)CCCC(=O)Nc3ccc(N[C@@H]4C[C@H](C)N(C(=O)CC)c5ccccc54)nc3)cc2)C[C@@H]1C [Compound 10k, N^1-(4-(((2S,4R)-2-Methyl-1-propionyl-1,2,3,4-tetrahydroquinolin-4-yl)amino)phenyl)-N^5-(6-(((2S,4R)-2-methyl-1-propionyl-1,2,3,4-tetrahydroquinolin-4-yl)amino)pyridin-3-yl)glutaramide] | 930
CCC(=O)N1c2ccccc2[C@H](Nc2ccc(-c3cnn(CCNC(=O)c4ccc(C5=NCc6nnc(C)n6-c6sc(C)c(C)c65)cc4)c3)cc2)C[C@@H]1C [Compound 14b, N-(2-(4-(4-(((2S,4R)-2-Methyl-1-propionyl-1,2,3,4-tetrahydroquinolin-4-yl)amino)phenyl)-1H-pyrazol-1-yl)ethyl)-4-(2,3,9-trimethyl-6H-thieno[3,2-f][1,2,4]triazolo[4,3-a][1,4]diazepin-4-yl)benzamide] | 120
CCC(=O)N1c2ccccc2[C@H](Nc2ccc(NC(=O)C3CN(C(=O)N4CCC(N[C@@H]5C[C@H](C)N(C(=O)CC)c6ccccc65)CC4)C3)cc2)C[C@@H]1C (relative stereo) [Compound 10e, N-(4-(((2S*,4R*)-2-Methyl-1-propionyl-1,2,3,4-tetrahydroquinolin-4-yl)amino)phenyl)-1-(4-(((2S,4R)-2-methyl-1-propionyl-1,2,3,4-tetrahydroquinolin-4-yl)amino)piperidine-1-carbonyl)azetidine-3-carboxamide] | 3590
CCC(=O)N1c2ccccc2[C@H](Nc2ccc(NC(=O)[C@@H](C)NC(=O)c3ccc(N[C@@H]4C[C@H](C)N(C(=O)CC)c5ccccc54)cc3)cc2)C[C@@H]1C (relative stereo) [Compound 2c, 4-{[(2S,4R)-2-Methyl-1-propionyl-1,2,3,4-tetrahydroquinolin-4-yl]amino}-N-{(R)-1-[(4-{[(2S*,4R*)-2-methyl-1-propionyl-1,2,3,4-tetrahydroquinolin-4-yl]amino}phenyl)amino]-1-oxopropan-2-yl}benzamide] | 29100
CCC(=O)N1c2ccccc2[C@H](Nc2ccc(-n3cc(CNC(=O)N4CCC(N[C@@H]5C[C@H](C)N(C(=O)CC)c6ccccc65)CC4)nn3)cc2)C[C@@H]1C (relative stereo) [Compound 10b, 4-(((2S*,4R*)-2-Methyl-1-propionyl-1,2,3,4-tetrahydroquinolin-4-yl)amino)-N-((1-(4-(((2S,4R)-2-methyl-1-propionyl-1,2,3,4-tetrahydroquinolin-4-yl)amino)phenyl)-1H-1,2,3-triazol-4-yl)methyl)piperidine-1-carboxamide] | 600
CCC(=O)N1c2ccccc2[C@H](Nc2ccc(C(=O)NCc3noc(-c4ccc(N[C@@H]5C[C@H](C)N(C(=O)CC)c6ccccc65)cc4)n3)cc2)C[C@@H]1C [Compound 3d, 4-{[(2S,4R)-2-Methyl-1-propionyl-1,2,3,4-tetrahydroquinolin-4-yl]amino}-N-{[5-(4-{[(2S,4R)-2-methyl-1-propionyl-1,2,3,4-tetrahydroquinolin-4-yl]amino}phenyl)-1,2,4-oxadiazol-3-yl]methyl}benzamide] | 110
CCC(=O)N1c2ccccc2[C@H](Nc2ccc(CN3CCn4cc(-c5ccc(N[C@@H]6C[C@H](C)N(C(=O)CC)c7ccccc76)cc5)nc4C3)cc2)C[C@@H]1C [Compound 5b, 1-((2S,4R)-2-Methyl-4-((4-((2-(4-(((2S,4R)-2-methyl-1-propionyl-1,2,3,4-tetrahydroquinolin-4-yl)amino)phenyl)-5,6-dihydroimidazo[1,2-a]pyrazin-7(8H)-yl)methyl)phenyl)amino)-3,4-dihydroquinolin-1(2H)-yl)propan-1-one] | 39600
CCC(=O)N1c2ccccc2[C@H](Nc2ccc(C(=O)NC3CN(C(=O)c4ccc(C5=NCc6nnc(C)n6-c6sc(C)c(C)c65)cc4)C3)cc2)C[C@@H]1C [Compound 14k, 4-(((2S,4R)-2-Methyl-1-propionyl-1,2,3,4-tetrahydroquinolin-4-yl)amino)-N-(1-(4-(2,3,9-trimethyl-6H-thieno[3,2-f][1,2,4]triazolo[4,3-a][1,4]diazepin-4-yl)benzoyl)azetidin-3-yl)benzamide] | 1800
CCC(=O)N1c2ccccc2[C@H](Nc2ccc(C(=O)NCCn3cc(-c4ccc(N[C@@H]5C[C@H](C)N(C(=O)CC)c6ccccc65)cc4)cn3)cc2)C[C@@H]1C [Compound 6q, 4-(((2S,4R)-2-Methyl-1-propionyl-1,2,3,4-tetrahydroquinolin-4-yl)amino)-N-(2-(4-(4-(((2S,4R)-2-methyl-1-propionyl-1,2,3,4-tetrahydroquinolin-4-yl)amino)phenyl)-1H-pyrazol-1-yl)ethyl)benzamide] | 450
CCC(=O)N1c2ccccc2[C@H](Nc2ccc(SCCNC(=O)c3ccc(C4=N[C@@H](CC(=O)OCCN(C)C)c5nnc(C)n5-c5sc(C)c(C)c54)cc3)cc2)C[C@@H]1C [Compound 13a, 2-(Dimethylamino)ethyl 2-((S)-2,3,9-trimethyl-4-(4-((2-((4-(((2S,4R)-2-methyl-1-propionyl-1,2,3,4-tetrahydroquinolin-4-yl)amino)phenyl)thio)ethyl)carbamoyl)phenyl)-6H-thieno[3,2-f][1,2,4]triazolo[4,3-a][1,4]diazepin-6-yl)acetate] | 490
CCC(=O)N1c2ccccc2[C@H](Nc2ccc(-c3cnn(CCNC(=O)N4CCC(N[C@@H]5C[C@H](C)N(C(=O)CC)c6ccccc65)CC4)c3)cc2)C[C@@H]1C (relative stereo) [Compound 10d, 4-(((2S*,4R*)-2-Methyl-1-propionyl-1,2,3,4-tetrahydroquinolin-4-yl)amino)-N-(2-(4-(4-(((2S,4R)-2-methyl-1-propionyl-1,2,3,4-tetrahydroquinolin-4-yl)amino)phenyl)-1H-pyrazol-1-yl)ethyl)piperidine-1-carboxamide] | 3420
CCC(=O)N1c2ccccc2[C@H](Nc2ccc(NC(=O)COCC(=O)Nc3ccc(N[C@@H]4C[C@H](C)N(C(=O)CC)c5ccccc54)cc3)cc2)C[C@@H]1C [Compound 5o, 2,2′-Oxybis(N-(4-(((2S,4R)-2-methyl-1-propionyl-1,2,3,4-tetrahydroquinolin-4-yl)amino)phenyl)acetamide)] | 140
Cc1sc2c(c1C)C(c1ccc(C(=O)NCC(=O)CNC(=O)c3ccc(C4=NCc5nnc(C)n5-c5sc(C)c(C)c54)cc3)cc1)=NCc1nnc(C)n1-2 [Compound 14o, N,N′-(2-Oxopropane-1,3-diyl)bis(4-(2,3,9-trimethyl-6H-thieno[3,2-f][1,2,4]triazolo[4,3-a][1,4]diazepin-4-yl)benzamide)] | 30900
CCC(=O)N1c2ccccc2[C@H](Nc2ccc(C(=O)N3CCC(n4cc(-c5ccc(N[C@@H]6C[C@H](C)N(C(=O)CC)c7ccccc76)cc5)cn4)CC3)cc2)C[C@@H]1C [Compound 6o, 1-((2S,4R)-2-Methyl-4-((4-(1-(1-(4-(((2S,4R)-2-methyl-1-propionyl-1,2,3,4-tetrahydroquinolin-4-yl)amino)benzoyl)piperidin-4-yl)-1H-pyrazol-4-yl)phenyl)amino)-3,4-dihydroquinolin-1(2H)-yl)propan-1-one] | 140
